Laboratory results reported in US20100093811A1 (priority 2007, published 2010).
Like-named read-outs stand apart in the source and are kept apart here.

What was measured:
[1] = target: wild-type HIV-1 protease (Human immunodeficiency virus type 1 group M subtype B, UniProt P04585); test: Assay for inhibition of microbial expressed HIV protease; format: biochemical; conditions: wild-type HIV-1 protease expressed in E. coli, peptide substrate, pH 5.5; read-out: Enzyme Inhibition - IC50
In short: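 Inhibition taken from HPLC (C18) product peak areas after phosphoric acid quench. Reaction: 440 micromolar Val-Ser-Gln-Asn-(betanapthyl)Ala-Pro-Ile-Val peptide, 5 pM E. coli-made protease, 1 h at 30° C, following 30 min room-temperature inhibitor preincubation in pH 5.5 acetate/NaCl/BSA buffer.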

[2] = system: acute HIV infection of T-lymphoid cells; test: Assay for inhibition of HIV replication (spread assay); format: cell-based, HIV-1
Procedure: • Assay for Inhibition of HIV Replication
Assays for the inhibition of acute HIV infection of T-lymphoid cells were conducted in accordance with Vacca, J. P. et al., Proc. Natl. Acad. Sci. USA 1994, 91: 4096.

[3] = Human immunodeficiency virus 1, T-lymphoid, read-out: Spread - IC95

Row | SMILES | IC50 [1] [nM] | IC95 [2, 3] [nM] | IC95 ([2]; Human immunodeficiency virus 1, T-lymphoid, read-out: Spread - IC95 (nM)) [nM] | IC95 ([2]; inhibition of HIV-1 replication, 10% FBS, read-out: Spread - IC95) [nM]
1 | CC[C@@H](CCC[C@@H](CO)N(CC(C)C)S(=O)(=O)c1ccc(CO)cc1)NC(=O)[C@@H](NC(=O)OC)C(c1ccccc1)c1ccccc1 [Example J19, N-{(1S,5S)-1-ethyl-6-hydroxy-5-[{[4-(hydroxymethyl)phenyl]sulfonyl}(isobutyl)amino]hexyl]-Nα-(methoxycarbonyl)-β-phenyl-L-phenylalaninamide] | 0.034 | 11 |  | 
2 | COC(=O)N[C@H](C(=O)N[C@H](CCC[C@@H](CO)N(CCC(C)C)S(=O)(=O)c1ccc(CO)cc1)C(F)(F)C(F)(F)F)C(c1ccccc1)c1ccccc1 [Example J12, N-[(1R,5S)-6-hydroxy-5-[{[4-(hydroxymethyl)phenyl]sulfonyl}(3-methylbutyl)amino]-1-(pentafluoroethyl)hexyl]-Nα-(methoxycarbonyl)-β-phenyl-L-phenylalaninamide] | 0.036 | 43 |  | 
3 | CC[C@@H](CCC[C@@H](CO)N(CCCF)S(=O)(=O)c1ccc(N)cc1)NC(=O)[C@@H](NC(=O)OC)C(c1ccccc1)c1ccccc1 [Example D15, N-{(1S,5S)-5-[[(4-aminophenyl)sulfonyl](3-fluoropropyl)amino]-1-ethyl-6-hydroxyhexyl}-Nα-(methoxycarbonyl)-β-phenyl-L-phenylalaninamide] | 0.268 | 39 |  | 
4 | COC(=O)N[C@H](C(=O)NC(CO)CCCC(CO)N(CCC(C)C)S(=O)(=O)c1ccc(N)cc1)C(c1ccccc1)c1ccccc1 (single isomer, unassigned) [Example M1-7A, N-[(1R or 1S,5R or 5S)-5-[[(4-aminophenyl)sulfonyl](3-methylbutyl)amino]-6-hydroxy-1-(hydroxymethyl)hexyl]-Nα-(methoxycarbonyl)-β-phenyl-L-phenylalaninamide] | 0.349 | 302 |  | 
5 | COC(=O)N[C@@H](Cc1ccccc1Cl)C(=O)N[C@@H](C)CCC[C@@H](CO)N(C(C)C)S(=O)(=O)c1ccc(N)cc1 [Example G11, N-{(1S,5S)-5-[[(4-aminophenyl)sulfonyl](isopropyl)amino]-6-hydroxy-1-methylhexyl}-2-chloro-Nα-(methoxycarbonyl)-L-phenylalaninamide] | 1.3 | 93 |  | 
6 | CCCN([C@H](CO)CCC[C@H](CC)NC(=O)[C@@H](NC)C(c1ccccc1)c1ccccc1)S(=O)(=O)c1ccc(CO)cc1 [Example J38, N-{(1S,5S)-1-ethyl-6-hydroxy-5-[{[4-(hydroxymethyl)phenyl]sulfonyl}(propyl)amino]hexyl}-Nα-methyl-β-phenyl-L-phenylalaninamide] | 0.098 | 34 |  | 
7 | CCCN([C@H](CO)CCC[C@@H](NC(=O)[C@@H](NC(=O)OC)C(c1ccccc1)c1ccccc1)C(F)(F)F)S(=O)(=O)c1ccc(N)cc1 [Example H1, N-[(1R,5S)-5-[[(4-aminophenyl)sulfonyl](propyl)amino]-6-hydroxy-1-(trifluoromethyl)hexyl]-Nα-(methoxycarbonyl)-β-phenyl-L-phenylalaninamide] | 0.022 |  | 14 | 
8 | CC[C@@H](CCC[C@@H](CO)N(CCC(C)C)S(=O)(=O)c1ccc(CO)cc1)NC(=O)[C@@H](NC)C(c1ccccc1)c1ccccc1 [Example J27, N-{(1S,5S)-1-ethyl-6-hydroxy-5-[{[4-(hydroxymethyl)phenyl]sulfonyl}(3-methylbutyl)amino]hexyl}-Nα-methyl-β-phenyl-L-phenylalaninamide] | 0.025 | 6 |  | 
9 | COC(=O)N[C@H](C(=O)NC(CO)CCCC(CO)N(CCC(C)C)S(=O)(=O)c1ccc(N)cc1)C(c1ccccc1)c1ccccc1 (single isomer, unassigned) [Example M1-7B, N-[(1R or 1S, 5R or 5S)-5-[[(4-aminophenyl)sulfonyl](3-methylbutyl)amino]-6-hydroxy-1-(hydroxymethyl)hexyl]-Nα-(methoxycarbonyl)-β-phenyl-L-phenylalaninamide] | 0.013 |  |  | 230
10 | CCCN([C@H](CO)CCC[C@H](CC)NC(=O)[C@@H](NC(=O)OC)C(c1ccccc1)c1ccccc1)S(=O)(=O)c1ccc(N)cc1 [Example F5, N-{(1S,5S)-5-[[(4-aminophenyl)sulfonyl](propyl)amino]-1-ethyl-6-hydroxyhexyl}-Nα-(methoxycarbonyl)-β-phenyl-L-phenylalaninamide] | 0.163 | 54 |  | 
11 | COC(=O)N[C@H](C(=O)N[C@H](C)CCC[C@@H](CO)N(CCC(C)C)S(=O)(=O)c1ccc(CO)cc1)C(c1ccccc1)c1ccccc1 [Example J5, N-{(1R,5S)-6-hydroxy-5-[{[4-(hydroxymethyl)phenyl]sulfonyl}(3-methylbutyl)amino]-1-methylhexyl}-Nα-(methoxycarbonyl)-β-phenyl-L-phenylalaninamide] | 0.291 | 192 |  | 
12 | COC(=O)N[C@H](C(=O)N[C@H](CCC[C@@H](CO)N(C(C)C)S(=O)(=O)c1ccc(N)cc1)C1CC1)C(c1ccccc1)c1ccccc1 [Example I8, N-{(1R,5S)-5-[[(4-aminophenyl)sulfonyl](isopropyl)amino]-1-cyclopropyl-6-hydroxyhexyl}-Nα-(methoxycarbonyl)-β-phenyl-L-phenylalaninamide] | 0.346 | 43 |  | 
13 | COC(=O)N[C@H](C(=O)N[C@@H](C)CCC[C@@H](CO)N(C(C)C)S(=O)(=O)c1ccc(CO)cc1)C(c1ccccc1)c1ccccc1 [Example K1, N-{(1S,5S)-6-hydroxy-5-[{[4-(hydroxymethyl)phenyl]sulfonyl}(isopropyl)amino]-1-methylhexyl}-Nα-(methoxycarbonyl)-β-phenyl-L-phenylalaninamide] | 0.018 | 13 |  | 
14 | COC(=O)N[C@@H](Cc1ccccc1Br)C(=O)N[C@@H](C)CCC[C@@H](CO)N(CC(C)C)S(=O)(=O)c1ccc(CO)cc1 [Example G12, 2-bromo-N-{(1S,5S)-6-hydroxy-5-[{[4-(hydroxymethyl)phenyl]sulfonyl}(isobutyl)amino]-1-methylhexyl}-Nα-(methoxycarbonyl)-L-phenylalaninamide] | 0.055 | 15 |  | 
15 | COC(=O)NC(Cc1cccc(Cl)c1Cl)C(=O)N[C@@H](C)CCC[C@@H](CO)N(C(C)C)S(=O)(=O)c1ccc(CO)cc1 (stereo partly drawn) [Example J45, 2,3-dichloro-N-{(1S,5S)-6-hydroxy-5-[{[4-(hydroxymethyl)phenyl]sulfonyl}(isopropyl)amino]-1-methylhexyl}-Nα-(methoxycarbonyl)phenylalaninamide] | 0.041 | 80 |  | 
16 | CC[C@@H](CCC[C@@H](CO)N(C(C)C)S(=O)(=O)c1ccc(N)cc1)NC(=O)[C@@H](NC(=O)OC)C(c1ccccc1)c1ccccc1 [Example G18, N-{(1S,5S)-5-[[(4-aminophenyl)sulfonyl](isopropyl)amino]-1-ethyl-6-hydroxyhexyl}-Nα-(methoxycarbonyl)-β-phenyl-L-phenylalaninamide] | 0.755 | 199 |  | 
17 | CC[C@@H](CCC[C@@H](CO)N(CC(C)C)S(=O)(=O)c1ccc(CO)cc1)NC(=O)[C@@H](NC(=O)OC)C(c1ccc(F)cc1)c1ccc(F)cc1 [Example J20, N-{(1S,5S)-1-ethyl-6-hydroxy-5-[{[4-(hydroxymethyl)phenyl]sulfonyl}(isobutyl)amino]hexyl}-4-fluoro-β-(4-fluorophenyl)-Nα-(methoxycarbonyl)-L-phenylalaninamide] | 0.02 | 50 |  | 
18 | CCC(CCC[C@@H](CO)N(CCC(C)C)S(=O)(=O)c1ccc(N)cc1)NC(=O)[C@H](C(c1ccccc1)c1ccccc1)N(C)C(=O)OC (mixture of isomers) [Example F12, N{(5S)-5-[[(4-aminophenyl)sulfonyl](3-methylbutyl)amino]-1-ethyl-6-hydroxyhexyl}-Nα-(methoxycarbonyl)-Nα-methyl-β-phenyl-L-phenylalaninamide] | 2.11 | 325 |  | 
19 | COC(=O)N[C@H](C(=O)N[C@@H](C)CCC[C@@H](CO)N(C(C)C)S(=O)(=O)c1ccc(C(C)=O)cc1)C(c1ccccc1)c1ccccc1 [Example K5, N-{(1S,5S)-5-[[(4-acetylphenyl)sulfonyl](isopropyl)amino]-6-bydroxy-1-methylhexyl}-Nα-(methoxycarbonyl)-β-phenyl-L-phenylalaninamide] | 0.284 | 41 |  | 
20 | COC(=O)N[C@H](C(=O)N[C@@H](C)CCC[C@@H](CO)N(CC(C)C)S(=O)(=O)c1ccc(N)cc1)C(c1ccccc1)c1ccccc1 [Example D9, N-{(1S,5S)-5-[[(4-aminophenyl)sulfonyl](isobutyl)amino]-6-hydroxy-1-methylhexyl}-Nα-(methoxycarbonyl)-β-phenyl-L-phenylalaninamide] | 0.035 | 8 |  | 
21 | COC(=O)N[C@@H](Cc1ccccc1Br)C(=O)N[C@@H](C)CCC[C@@H](CO)N(C(C)C)S(=O)(=O)c1ccc(N)cc1 [Example G15, N-{(1S,SS)-5-[[(4-aminophenyl)sulfonyl](isopropyl)amino]-6-hydroxy-1-methylhexyl}-2-bromo-Nα-(methoxycarbonyl)-L-phenylalaninamide] | 0.584 | 77 |  | 
22 | CCN([C@H](CO)CCC[C@H](C)NC(=O)[C@@H](NC(=O)OC)C(c1ccccc1)c1ccccc1)S(=O)(=O)c1ccc(CO)cc1 [Example G1, N-[(1S,5S)-5-(ethyl{[4-(hydroxymethyl)phenyl]sulfonyl}amino)-6-hydroxy-1-methylhexyl]-Nα-(methoxycarbonyl)-β-phenyl-L-phenylalaninamide] | 0.05 | 37 |  | 
